Test results published in patent US6921810B2, “Bifunctional antibiotics” (The Scripps Research Institute, priority 2000, dated 2005).
Converted amounts (≈) assume the structure as drawn.

Key:
[1] = test system: NCC1OC(OC2C(N)CC(N)C(O)C2OCC(=O)NCCCNC(=O)COC2C(O)C(N)CC(N)C2OC2OC(CN)C(O)C(O)C2N)C(N)C(O)C1O; test: Km as substrate for APH(3′)-IIIa (3′-O-phosphorylation); format: biochemical; settings: other: 3′-O-phosphorylation
Protocol: (§1) They were in fact potent competitive inhibitors of the APH(2″) activity, Kis=0.8 μM for dimer 4, 0.1 μM for 6 and 0.7 μM for 27.
(§2) BF refers to the bifunctional enzyme AAC(6′)-APH(2″), where the particular activity is indicated. The neamine data were obtained from Daigle, D. M.; et al. Chem. Biol. 1999, 6, 99.

[2] = test system: CN(CCCCN(C)CC(O)COC1C(O)C(N)CC(N)C1OC1OC(CN)C(O)C(O)C1N)CC(O)COC1C(O)C(N)CC(N)C1OC1OC(CN)C(O)C(O)C1N; test: as above; format: biochemical; settings: other: 3′-O-phosphorylation
Protocol: as §1, §2

[3] = test system: NCC1OC(OC2C(N)CC(N)C(O)C2OCC(=O)NCCCCCNC(=O)COC2C(O)C(N)CC(N)C2OC2OC(CN)C(O)C(O)C2N)C(N)C(O)C1O; test: as above; format: biochemical; settings: other: 3′-O-phosphorylation
Protocol: as §1, §2

[4] = test system: E. coli 16S rRNA A-site (AS-wt); test: Surface plasmon resonance binding to immobilized biotinylated A-site rRNA; settings: SPR; for Kd: AS-wt; for affinity for AS-wt relative to neamine: compared with neamine
Protocol: The dissociation constant (Kd) and binding stoichiometry were determined using surface plasmon resonance (SPR) against an immobilized rRNA sequence modeling the A-site of prokaryotic rRNA (FIGS. 1-4) (Hendrix, M.; et al. J. Am. Chem. Soc. 1997, 119, 3641; Wong, C.-H.; et al. Chem. Biol. 1998, 5, 397). […] We focused on neamine as it represents the simplest effective aminoglycoside antibiotic and contains the key β-hydroxyamine motif for interaction with the phosphodiester group and the Hoogsteen face of guanine residues in RNA (FIG. 2) (Hendrix, M.; et al. Angew. Chem., Int. Ed. Engl. 1997, 36, 95). […] Various dimers of neamine were therefore constructed in order to identify a bivalent aminoglycoside that would bind AS-wt with high affinity (FIG. 4), and at the same time resist and/or inhibit the modifying enzymes due to its unnatural structure (Some aminoglycoside dimers were prepared previously; however, the monomers bind the A-site stoichiometrically: see Michael; K.; et al. Bioorg. Med. Chem. 1999, 7, 1361; for vancomycin dimers, see Rao, J.; Whitesides, G. H. J. Am. Chem. Soc. 1997, 119, 10286; Sundram, U. N.; et al. J. Am. Chem. Soc. 1996, 118, 13107).
Reactions were performed under inert atmosphere unless otherwise stated. THF and CH2Cl2 were distilled under Ar with benzophenone ketyl and CaH2, respectively. NMR spectra were obtained on a Bruker AMX-400. The sites of enzymatic modification of neomycin and gentamicin that cause drug resistance are shown in FIG. 1 (Daigle, D. M.; et al. Chem. Biol. 1999, 6, 99). Synthesis of biotinylated RNAs and surface plasmon resonance experiments were performed as previously described and Kd values were also calculated as previously described (FIG. 2) (Hendrix, M.; et al. J. Am. Chem. Soc. 1997, 119, 3641).

[5] = target: APH(3′)-IIIa (Enterococcus faecalis, UniProt P0A3Y5); test: Aminoglycoside-modifying enzyme kinetics, APH(3′)-IIIa; format: biochemical; settings: in words
Protocol: as §1, §2

[6] = test system: E. coli ATCC 25922; test: Antimicrobial testing (MIC, NCCLS M7-A4); format: cell-based; settings: Escherichia coli, ATCC25922; E. coli reference strain
Protocol: (§3) Antimicrobial Testing: The Kirby-Bauer Disk assay was performed as previously described (Hendrix, M.; et al. J. Am. Chem. Soc. 1997, 119, 3641; Phillips, I.; Williams, D. In Laboratory Methods in Antimicrobial Chemotherapy; Gerrod, L., Ed.; Churchill Livingstone Press: Edinburg, 1978; pp 3-30). Reference strains E. coli ATCC 25922 and S. aureus ATCC 25923 were obtained as lyophilized pellets (Difco). MIC testing was performed as recommended in the NCCLS Publication M7-A4.

[7] = target: AAC(6′) activity of AAC(6′)-APH(2″) (Staphylococcus aureus, UniProt P0A0C1); test: Aminoglycoside-modifying enzyme kinetics, AAC(6′) activity of the bifunctional enzyme; format: biochemical; settings: in words
Protocol: as §1, §2

[8] = target: AAC(6′)-Ii (Enterococcus faecium, UniProt Q47764); test: Aminoglycoside-modifying enzyme kinetics, AAC(6′)-Ii; format: biochemical; settings: in words
Protocol: as §1, §2

[9] = target: APH(2″) activity of AAC(6′)-APH(2″) (Staphylococcus aureus, UniProt P0A0C1); test: Aminoglycoside-modifying enzyme kinetics, APH(2″) activity of the bifunctional enzyme; format: biochemical; settings: for substrate for APH(2″) activity: in words
Protocol: as §1, §2

[10] = test system: NCC1OC(OC2C(N)CC(N)C(O)C2OCC(=O)NCCCNC(=O)COC2C(O)C(N)CC(N)C2OC2OC(CN)C(O)C(O)C2N)C(N)C(O)C1O; test: Km as substrate for AAC(6′)-Ii (6′-N-acetylation); format: biochemical; settings: other: 6′-N-acetylation
Protocol: as §1, §2

[11] = test system: CN(CCCCN(C)CC(O)COC1C(O)C(N)CC(N)C1OC1OC(CN)C(O)C(O)C1N)CC(O)COC1C(O)C(N)CC(N)C1OC1OC(CN)C(O)C(O)C1N; test: Km as substrate for AAC(6′)-Ii (6′-N-acetylation); format: biochemical; settings: other: 6′-N-acetylation
Protocol: as §1, §2

[12] = test system: NCC1OC(OC2C(N)CC(N)C(O)C2OCC(=O)NCCCCCNC(=O)COC2C(O)C(N)CC(N)C2OC2OC(CN)C(O)C(O)C2N)C(N)C(O)C1O; test: Km as substrate for AAC(6′)-Ii (6′-N-acetylation); format: biochemical; settings: other: 6′-N-acetylation
Protocol: as §1, §2

[13] = test system: P. aeruginosa, PAO-1; test: Antibiotic activity against other strains; format: cell-based; settings: in words
Protocol: as §3

[14] = test system: S. aureus ATCC 33591-MRSA; test: Antibiotic activity against other strains; format: cell-based; settings: in words
Protocol: as §3

[15] = test system: P. aeruginosa ATCC 27853; test: Antibiotic activity against other strains; format: cell-based; settings: in words
Protocol: as §3

[16] = test system: E. faecalis ATCC 29212; test: Antibiotic activity against other strains; format: cell-based; settings: in words
Protocol: as §3

[17] = test system: S. aureus ATCC 29213; test: Antibiotic activity against other strains; format: cell-based; settings: in words
Protocol: as §3

[18] = test system: tobramycin-resistant strain of P. aeruginosa from cystic fibrosis patients; test: Antibiotic activity against a tobramycin-resistant strain; format: cell-based; settings: compared with tobramycin
[19] = test system: NCC1OC(OC2C(N)CC(N)C(O)C2OCC(=O)NCCCNC(=O)COC2C(O)C(N)CC(N)C2OC2OC(CN)C(O)C(O)C2N)C(N)C(O)C1O; test: Km as substrate for the AAC(6′) acetyltransferase activity of the bifunctional enzyme AAC(6′)-APH(2″) (BF); format: biochemical; settings: other: acetyltransferase activity of the bifunctional enzyme (BF)
Protocol: as §1, §2

[20] = test system: CN(CCCCN(C)CC(O)COC1C(O)C(N)CC(N)C1OC1OC(CN)C(O)C(O)C1N)CC(O)COC1C(O)C(N)CC(N)C1OC1OC(CN)C(O)C(O)C1N; test: as above; format: biochemical; settings: other: acetyltransferase activity of the bifunctional enzyme (BF)
Protocol: as §1, §2

[21] = test system: NCC1OC(OC2C(N)CC(N)C(O)C2OCC(=O)NCCCCCNC(=O)COC2C(O)C(N)CC(N)C2OC2OC(CN)C(O)C(O)C2N)C(N)C(O)C1O; test: as above; format: biochemical; settings: other: acetyltransferase activity of the bifunctional enzyme (BF)
Protocol: as §1, §2

AAC(6′) activity of AAC(6′)-APH(2″), sequence (P0A0C1 whole entry): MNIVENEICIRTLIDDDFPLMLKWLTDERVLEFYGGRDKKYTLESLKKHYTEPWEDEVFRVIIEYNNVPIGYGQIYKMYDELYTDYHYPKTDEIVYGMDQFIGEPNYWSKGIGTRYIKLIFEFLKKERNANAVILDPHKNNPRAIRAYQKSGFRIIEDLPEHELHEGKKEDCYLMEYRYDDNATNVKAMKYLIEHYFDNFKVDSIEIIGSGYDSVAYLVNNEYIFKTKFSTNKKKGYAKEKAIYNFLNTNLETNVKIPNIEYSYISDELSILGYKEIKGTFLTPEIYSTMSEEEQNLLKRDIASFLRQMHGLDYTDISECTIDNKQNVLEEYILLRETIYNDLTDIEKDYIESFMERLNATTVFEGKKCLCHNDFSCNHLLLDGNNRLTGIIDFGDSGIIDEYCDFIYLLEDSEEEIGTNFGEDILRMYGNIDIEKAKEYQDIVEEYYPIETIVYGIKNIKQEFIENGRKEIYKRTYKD
APH(2″) activity of AAC(6′)-APH(2″), sequence (P0A0C1 whole entry): as above
AAC(6′)-Ii, sequence (Q47764 entry or part of it): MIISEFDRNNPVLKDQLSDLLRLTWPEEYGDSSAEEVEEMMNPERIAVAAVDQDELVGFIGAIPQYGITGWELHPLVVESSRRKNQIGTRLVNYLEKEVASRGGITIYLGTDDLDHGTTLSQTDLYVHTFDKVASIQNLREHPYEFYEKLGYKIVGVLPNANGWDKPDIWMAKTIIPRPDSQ
APH(3′)-IIIa, sequence (P0A3Y5 whole entry): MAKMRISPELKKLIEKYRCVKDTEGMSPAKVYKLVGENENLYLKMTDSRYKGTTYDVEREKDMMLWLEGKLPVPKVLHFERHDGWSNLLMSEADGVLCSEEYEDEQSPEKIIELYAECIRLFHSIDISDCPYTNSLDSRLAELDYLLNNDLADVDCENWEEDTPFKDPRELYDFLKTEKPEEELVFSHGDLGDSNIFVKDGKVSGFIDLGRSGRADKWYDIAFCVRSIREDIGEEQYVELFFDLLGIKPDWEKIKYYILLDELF

Work on APH(3′)-IIIa (Enterococcus faecalis) yielded a Km [1] of 0.82 µM, a Km [2] of 1.1 µM and a Km [3] of 2.66 µM.
`NC[C@H]1O[C@H](O[C@H]2[C@H](O)[C@@H](O)[C@H](N)C[C@@H]2N)[C@H](N)[C@@H](O)[C@@H]1O` [neamine, reference compound] showed a Kd ([4]; for neamine per binding site) of 10000 nM.
`NCC1OC(OC2C(N)CC(N)C(O)C2OCC(=O)NCCCNC(=O)COC2C(O)C(N)CC(N)C2OC2OC(CN)C(O)C(O)C2N)C(N)C(O)C1O` (stereo not drawn) [Dimer 4, N,N′-1,3-bis(5-Ethylcarboxyl-neamine)propylamide] was tested, and the “substrate for APH(3′)-IIIa” value [5] was “poor substrates”, the Kd ([4]; for neamine per binding site) was 1100 nM and the “affinity for AS-wt relative to neamine” value [4] was “ten-fold greater than neamine”. For the same compound, the MIC [6] was 31 µM (≈ 24.8 µg/mL), the “substrate for AAC(6′) activity of bifunctional enzyme” value (from here on “substrate for AAC(6′) activity”) [7] was “poor substrates” and the “substrate for AAC(6′)-Ii” value [8] was “poor substrates”. For the same compound, the Ki [9] was 800 nM and the “substrate for APH(2″) activity” value [9] was “not substrates”.
AAC(6′)-Ii (Enterococcus faecium) showed a Km [10] of 53.4 µM, a Km [11] of 28.7 µM and a Km [12] of 83.6 µM.
For `CN(CCCCN(C)CC(O)COC1C(O)C(N)CC(N)C1OC1OC(CN)C(O)C(O)C1N)CC(O)COC1C(O)C(N)CC(N)C1OC1OC(CN)C(O)C(O)C1N` (stereo not drawn) [Dimer 27], the antibiotic activity [13] was “effective”, the antibiotic activity [14] was “effective” and the antibiotic activity [15] was “effective”. For the same compound, the antibiotic activity [16] was “effective”, the antibiotic activity [17] was “effective” and the “effectiveness relative to tobramycin” value [18] was 3 times. The “substrate for APH(3′)-IIIa” value [5] was “poor substrates”, the Kd [4] was 40 nM and the MIC [6] was 6.25 µM (≈ 5.46 µg/mL). For the same compound, the “substrate for AAC(6′) activity” value [7] was “poor substrates”, the “substrate for AAC(6′)-Ii” value [8] was “poor substrates” and the Ki [9] was 700 nM. For the same compound, the “substrate for APH(2″) activity” value [9] was “not substrates”.
For `NCC1OC(OC2C(N)CC(N)C(O)C2OCC(=O)NCCCCCNC(=O)COC2C(O)C(N)CC(N)C2OC2OC(CN)C(O)C(O)C2N)C(N)C(O)C1O` (stereo not drawn) [Dimer 6, N,N′-1,3-bis(5-Ethylcarboxyl-neamine)pentylamide], the “substrate for APH(3′)-IIIa” value [5] was “poor substrates”, the Kd ([4]; for neamine per binding site) was 800 nM and the “affinity for AS-wt relative to neamine” value [4] was “ten-fold greater than neamine”. The MIC [6] was 125 µM (≈ 103 µg/mL), the “substrate for AAC(6′) activity” value [7] was “poor substrates” and the “substrate for AAC(6′)-Ii” value [8] was “poor substrates”. The Ki [9] was 100 nM and the “substrate for APH(2″) activity” value [9] was “not substrates”.
“AAC(6′) activity of the bifunctional aminoglycoside modifying-enzyme AAC(6′)-APH(2″) (Staphylococcus aureus)” was tested, and the Km [19] was 0.84 µM, the Km [20] was 0.53 µM and the Km [21] was 4.22 µM.
